The subject of test [1] is heart allografts (BN to LEW). Nature of the test: Rat heart transplantation, primary therapy to prevent acute allograft rejection (drug day 0 to day 10). The format is in vivo. The note with it: for median survival time (MST) of heart allografts: day 0 to day 10 after transplantation, allograft control 6 days. From the text:
(§1) Inbred male Lewis rats (LEW) (RT1^1), weighing 200-250 g, were used as heart transplantation recipients. Inbred male LEW and inbred male Brown Norway (BN) (RT1^a), weighing 150-200 g, were used as isograft and allograft donor rats, respectively. […] Rejection of heart grafts was defined as the complete cessation of impulse and was confirmed visually after laparatomy. […] Control isograft and allograft recipients (5 rats each) received no immunosuppressant drugs after transplantation.

In test [2] the test system is heart allografts, ongoing graft rejection. The experiment in a line: Rescue of ongoing heart allograft rejection (drug from day 5 for 10 days). The note with it: 3.2 mg/kg/day on days 5-14 post-transplantation. It counts as in vivo, rat.
Description: as §1
Therefore, drug administration was halted from day 0-day 4 after heart transplantation in order to initiate the transplantation process.

Test [3] concerns renal allografts (BN to LEW). Nature of the test: Rescue of ongoing renal allograft rejection (drug from day 2 or day 4 for 13 days). The note with it: untreated allograft controls rejected at day 8. The format is in vivo, rat. On the procedure: Male LEW rats weighing 250-350 g and male BN rats weighing 150-250 g were kept under specific pathogen-free conditions in the animal facility at Fujisawa Pharmaceutical Co., Ltd., Osaka, Japan. […] The donor ureter was directly implanted into the recipient bladder over a fine polyethylene internal stent. All recipients were bilaterally nephrectomized at the time of transplantation. The graft ischemic time was approximately 30 minutes. Survival of the kidney transplant was measured as time of rat survival. Graft rejection was confirmed by histological examination of kidney tissue from recipients with the observation of interstitial hemorrhage, tubular necrosis, venous endotheliatitis and diffuse lymphoplasmacytic infiltration indicating graft rejection. […] Control isograft and allograft recipients received either distilled water, olive oil, or placebo after transplantation.

The test system of test [4] is CD4+, CD8+, NKR-P1A, and ED2 positive cells. The experiment in a line: Immunohistological examination of cell infiltration into heart allograft tissue. It counts as in vivo, rat. Conditions: CsA 10 mg/kg/day, tacrolimus 3.2 mg/kg/day orally from day 5. The source says: The presence of CD4+, CD8+, NKR-P1A, and ED2 positive cells was examined on day 5, 7 and 10 after transplantation by immunohistological examination of graft tissue immunostained with specific antibodies to various immune cell populations. For immunohistology, 4 μm frozen sections of heart tissue were cut, fixed with acetone and exposed to monoclonal antibodies (Pharmingen, San Diego, Calif.) against markers for CD4+ (helper T cells), CD8^+ (cytotoxic T cells), NKR-P1A (natural killer cells), and ED2 (macrophage cells) positive cells. Then the sections were incubated with peroxidase-conjugated anti-mouse IgG antibodies. The bound peroxidase was detected using 3-amino-9-ethylcarbazole. The results were scored quantitatively. In each tissue section, three random representative fields were counted by visual microscope (×40) to determine the average cell number per tissue.

Test [5] relates to IL10 mRNA. The experiment in a line: RT-PCR for IL10 mRNA in heart graft tissues. Conditions: days 7 and 10; CsA 10 mg/kg/day, tacrolimus 3.2 mg/kg/day from day 5. The format is in vivo, rat. On the procedure:
At day 5, 7 and 10 after transplantation, total RNA was extracted from heart graft tissues and tested by reverse transcriptase-polymerase chain reaction (RT-PCR) for cytokine mRNAs. Total RNA was extracted from transplanted heart tissue by TRIZOL (GIBCO BRL, Gaithersburg, Md.). RT-PCR was performed by reverse transcribing total RNA into cDNA using random hexamers (GIBCO BRL, Gaithersburg, Md.). The reverse-transcribed material was added to the PCR mixture with sense and anti-sense primers of IFNγ, IL2, IL4, IL10, IL1β, IL6, TNFα, TGFβ, Granzyme, Perforin or G3PDH and Taq DNA polymerase (Boehringer Mann heim GmbH, Mannheim, Germany). Amplification was performed with optimized cycles for each cytokine or G3PDH by ThermalCycler (Perkin-Elmer, Branchburg, N.J.). PCR product was applied to 2.3% agarose gel, resolved by electrophoresis, and visualized by ethidium bromide staining. The intensity of the gene-specific bands was obtained by the Gel Doc 1000 documentation system (BIO-RAD Laboratories, Hercules, Calif.). G3PDH mRNA was amplified as an internal control for RT-PCR.

Test [6] concerns IL2 and IL4 protein. The experiment in a line: ELISA assay of IL2 and IL4 proteins in serum peripheral lymphocytes of heart allograft recipients. The format is in vivo, rat. Conditions: day 7 post-transplantation; optimal doses from day 5. How it is done: (§2) The transplantation method described in Example 5 was used. […] The levels of IL2, IL4 and IL10 proteins in serum peripheral lymphocytes were measured at day 7 post-transplantation by ELISA assay.
In general terms: ELISA stands for enzyme-linked immunosorbent assay.

Test [7] deals with IL10 protein. Nature of the test: ELISA assay of IL10 protein in serum peripheral lymphocytes of heart allograft recipients. It counts as in vivo, rat. The note with it: day 7 post-transplantation, compared with the allograft control; optimal doses from day 5. On the procedure:
as §2

The test system of test [8] is T-cell-dependent antibody production, graft vs. host reactivity, delayed-type sensitivity reactions. Conditions: suppressing T-cell-dependent antibody production; cited from earlier work.
Test [9] has as its system liver transplantation. The note with it: clinical organ transplantation, estimated; cited from earlier work.
Test [10] deals with allograft survival. The note with it: optimal doses administered several days after transplantation, after allograft rejection has begun; cited from earlier work.

The values below come from patent publication US20050025769A1, “Method of suppressing ongoing acute allograft rejection” (Fujisawa Pharmaceutical Company, Ltd., priority 1999, published 2005).

`C=CC[C@@H]1/C=C(\C)C[C@H](C)C[C@H](OC)[C@H]2O[C@@](O)(C(=O)C(=O)N3CCCC[C@H]3C(=O)O[C@H](/C(C)=C/[C@@H]3CC[C@@H](O)[C@H](OC)C3)[C@H](C)[C@@H](O)CC1=O)[C@H](C)C[C@@H]2OC` [tacrolimus, Tacrolimus]: the results for the “median survival time (MST) of heart allografts” value in [1] (1.0 mg/kg/day orally), in test [1] (3.2 mg/kg/day orally) and in [1] (10 mg/kg/day orally) were 12 days, 19 days and 21 days, respectively. Besides, the optimal dose in test [1] (primary therapy, oral, day 0 to day 10, based on MST) amounted to 3.2 mg/kg/day. Moreover, the “extension of the survival of the graft” value in [2] (versus allograft control) is recorded as “about 13 days”. Also, the “MST of heart allografts” value in test [2] (allograft control 6 days) turned out to be 19 days. The “recipient rats that survived more than 50 days” value is “all of 5” in [3] (3.2 mg/kg/day from day 2-14 after grafting) and 3 of 5 in test [3] (3.2 mg/kg/day from day 4-16 after grafting). In test [4] (day 7), the “suppression of all of the cell infiltration into the local graft tissues” value was “no significant suppression”. In test [4] (day 10), the “blocking CD8+ and NKR-P1A cell infiltration” value was “significantly blocked”. For the same compound, the “blocking the CD4+ and ED2 cell filtration” value in [4] (day 10) is reported as “partially blocking”. Further, in test [5], the “suppression of IL10 mRNA expression” value is given as “more than CsA”. In addition, the “suppression of the expression of IL2 and IL4 protein” value in test [6] is given as “equally”. In test [7], the “suppression of IL10 protein expression” value stood at 73%. Also, the “potency relative to CsA in vivo” value in test [8] was 10 times. The “potency relative to CsA in liver transplantation” value in test [9] is recorded as “three to ten orders of magnitude more potent”. In addition, in test [10], the “effect on allograft survival” value is recorded as “significantly increase allograft survival”.
